In patent US8748415B2 (priority 2011, dated 2014):

system: recombinant NL4-3 virus (Renilla luciferase in nef, Gag P373S); assay: HIV cell culture assay (luciferase activity in MT-2 cells infected with NLRluc recombinant virus); assay type: cell-based; settings: NL43, MT-2 cells infected 4-5 days with NLRluc recombinant virus, class symbol
Summary of the method: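 MT-2 cells in RPMI/10% FBS were infected with recombinant NL4-3 (NLRluc), produced by 293T transfection and titered in MT-2 by luciferase. Serial inhibitor dilutions were present throughout a 4–5 day infection. Antiviral activity was quantified as Renilla luciferase signal via a modified Dual Luciferase read.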

**Q.** For `C=C(C)[C@@H]1CC[C@]2(CNCCCNC)CC[C@]3(C)[C@H](CC[C@@H]4[C@@]5(C)CC=C(c6ccc(C(=O)O)cc6)C(C)(C)[C@@H]5CC[C@]43C)[C@@H]12` [Example 19, 4-((1R,3aS,5aR,5bR,7aR,11aS,11bR,13aR,13bR)-5a,5b,8,8,11a-pentamethyl-3a-((3-(methylamino)propylamino)methyl)-1-(prop-1-en-2-yl)-2,3,3a,4,5,5a,5b,6,7,7a,8,11,11a,11b,12,13,13a,13b-octadecahydro-1H-cyclopenta[a]chrysen-9-yl)benzoic acid], which EC50 is on record?
**A.** < 100 nM

**Q.** Which EC50 does the source give for `C=C(C)[C@@H]1CC[C@]2(CNCC(=O)N3CCCCC3)CC[C@]3(C)[C@H](CC[C@@H]4[C@@]5(C)CC=C(c6ccc(C(=O)O)cc6)C(C)(C)[C@@H]5CC[C@]43C)[C@@H]12` [Example 110, 4-((1R,3aS,5aR,5bR,7aR,11aS,11bR,13aR,13bR)-5a,5b,8,8,11a-pentamethyl-3a-((2-oxo-2-(piperidin-1-yl)ethylamino)methyl)-1-(prop-1-en-2-yl)-2,3,3a,4,5,5a,5b,6,7,7a,8,11,11a,11b,12,13,13a,13b-octadecahydro-1H-cyclopenta[a]chrysen-9-yl)benzoic acid] here?
**A.** < 100 nM

**Q.** Which EC50 does the source give for `C=C(C)[C@@H]1CC[C@]2(CNCC(=O)N3CCCC3)CC[C@]3(C)[C@H](CC[C@@H]4[C@@]5(C)CC=C(c6ccc(C(=O)O)cc6)C(C)(C)[C@@H]5CC[C@]43C)[C@@H]12` [Example 109, 4-((1R,3aS,5aR,5bR,7aR,11aS,11bR,13aR,13bR)-5a,5b,8,8,11a-pentamethyl-3a-((2-oxo-2-(pyrrolidin-1-yl)ethylamino)methyl)-1-(prop-1-en-2-yl)-2,3,3a,4,5,5a,5b,6,7,7a,8,11,11a,11b,12,13,13a,13b-octadecahydro-1H-cyclopenta[a]chrysen-9-yl)benzoic acid] here?
**A.** < 100 nM

**Q.** Which EC50 does the source give for `C=C(C)[C@@H]1CC[C@]2(CNCCC(=O)N3CCC(C(=O)OCC)CC3)CC[C@]3(C)[C@H](CC[C@@H]4[C@@]5(C)CC=C(c6ccc(C(=O)O)cc6)C(C)(C)[C@@H]5CC[C@]43C)[C@@H]12` [Example 98, 4-((1R,3aS,5aR,5bR,7aR,11aS,11bR,13aR,13bR)-3a-((3-(4-(ethoxycarbonyl)piperidin-1-yl)-3-oxopropylamino)methyl)-5a,5b,8,8,11a-pentamethyl-1-(prop-1-en-2-yl)-2,3,3a,4,5,5a,5b,6,7,7a,8,11,11a,11b,12,13,13a,13b-octadecahydro-1H-cyclopenta[a]chrysen-9-yl)benzoic acid] here?
**A.** < 100 nM

**Q.** Which EC50 does the source give for `C=C(C)[C@@H]1CC[C@]2(CNCCC(=O)N3CCN(C)CC3)CC[C@]3(C)[C@H](CC[C@@H]4[C@@]5(C)CC=C(c6ccc(C(=O)O)cc6)C(C)(C)[C@@H]5CC[C@]43C)[C@@H]12` [Example 105, 4-((1R,3aS,5aR,5bR,7aR,11aS,11bR,13aR,13bR)-5a,5b,8,8,11a-pentamethyl-3a-((3-(4-methylpiperazin-1-yl)-3-oxopropylamino)methyl)-1-(prop-1-en-2-yl)-2,3,3a,4,5,5a,5b,6,7,7a,8,11,11a,11b,12,13,13a,13b-octadecahydro-1H-cyclopenta[a]chrysen-9-yl)benzoic acid] here?
**A.** < 100 nM

**Q.** `C=C(C)[C@@H]1CC[C@]2(CNC(=O)[C@@H]3CCCN3C(C)=O)CC[C@]3(C)[C@H](CC[C@@H]4[C@@]5(C)CC=C(c6ccc(C(=O)O)cc6)C(C)(C)[C@@H]5CC[C@]43C)[C@@H]12` [Example 138, 4-((1R,3aS,5aR,5bR,7aR,11aS,11bR,13aR,13bR)-3a-(((S)-1-acetylpyrrolidine-2-carboxamido)methyl)-5a,5b,8,8,11a-pentamethyl-1-(prop-1-en-2-yl)-2,3,3a,4,5,5a,5b,6,7,7a,8,11,11a,11b,12,13,13a,13b-octadecahydro-1H-cyclopenta[a]chrysen-9-yl)benzoic acid] was tested. Which EC50 did it give?
**A.** < 100 nM

**Q.** For `C=C(C)[C@@H]1CC[C@]2(CNCCCN3CCCS3(=O)=O)CC[C@]3(C)[C@H](CC[C@@H]4[C@@]5(C)CC=C(c6ccc(C(=O)O)cc6)C(C)(C)[C@@H]5CC[C@]43C)[C@@H]12` [Example 40, 4-((1R,3aS,5aR,5bR,7aR,11aS,11bR,13aR,13bR)-3a-(((3-(1,1-dioxido-2-isothiazolidinyl)propyl)amino)methyl)-1-isopropenyl-5a,5b,8,8,11a-pentamethyl-2,3,3a,4,5,5a,5b,6,7,7a,8,11,11a,11b,12,13,13a,13b-octadecahydro-1H-cyclopenta[a]chrysen-9-yl)benzoic acid], which EC50 is on record?
**A.** < 100 nM

**Q.** How did the EC50 turn out when `C=C(C)[C@@H]1CC[C@]2(CNCCN3CCNC3=O)CC[C@]3(C)[C@H](CC[C@@H]4[C@@]5(C)CC=C(c6ccc(C(=O)O)cc6)C(C)(C)[C@@H]5CC[C@]43C)[C@@H]12` [Example 77, 4-((1R,3aS,5aR,5bR,7aR,11aS,11bR,13aR,13bR)-5a,5b,8,8,11a-pentamethyl-3a-((2-(2-oxoimidazolidin-1-yl)ethylamino)methyl)-1-(prop-1-en-2-yl)-2,3,3a,4,5,5a,5b,6,7,7a,8,11,11a,11b,12,13,13a,13b-octadecahydro-1H-cyclopenta[a]chrysen-9-yl)benzoic acid] was run?
**A.** < 100 nM

**Q.** With `C=C(C)[C@@H]1CC[C@]2(CNC(=O)C3CC(=O)NC(=O)C3)CC[C@]3(C)[C@H](CC[C@@H]4[C@@]5(C)CC=C(c6ccc(C(=O)O)cc6)C(C)(C)[C@@H]5CC[C@]43C)[C@@H]12` [Example 134, 4-((1R,3aS,5aR,5bR,7aR,11aS,11bR,13aR,13bR)-3a-((2,6-dioxopiperidine-4-carboxamido)methyl)-5a,5b,8,8,11a-pentamethyl-1-(prop-1-en-2-yl)-2,3,3a,4,5,5a,5b,6,7,7a,8,11,11a,11b,12,13,13a,13b-octadecahydro-1H-cyclopenta[a]chrysen-9-yl)benzoic acid] as the compound, how does the EC50 read?
**A.** < 100 nM

**Q.** `C=C(C)[C@@H]1CC[C@]2(CNCCCC(=O)N3CCS(=O)(=O)CC3)CC[C@]3(C)[C@H](CC[C@@H]4[C@@]5(C)CC=C(c6ccc(C(=O)O)cc6)C(C)(C)[C@@H]5CC[C@]43C)[C@@H]12` [Example 54, 4-((1R,3aS,5aR,5bR,7aR,11aS,11bR,13aR,13bR)-3a-(((4-(1,1-dioxido-4-thiomorpholinyl)-4-oxobutyl)amino)methyl)-1-isopropenyl-5a,5b,8,8,11a-pentamethyl-2,3,3a,4,5,5a,5b,6,7,7a,8,11,11a,11b,12,13,13a,13b-octadecahydro-1H-cyclopenta[a]chrysen-9-yl)benzoic acid] was tested. Which EC50 did it give?
**A.** < 100 nM

**Q.** `C=C(C)[C@@H]1CC[C@]2(CNCCC(=O)N3CCC[C@H]3C(=O)O)CC[C@]3(C)[C@H](CC[C@@H]4[C@@]5(C)CC=C(c6ccc(C(=O)O)cc6)C(C)(C)[C@@H]5CC[C@]43C)[C@@H]12` [Example 102, (S)-1-(3-(((1R,3aS,5aR,5bR,7aR,11aS,11bR,13aR,13bR)-9-(4-carboxyphenyl)-5a,5b,8,8,11a-pentamethyl-1-(prop-1-en-2-yl)-2,3,3a,4,5,5a,5b,6,7,7a,8,11,11a,11b,12,13,13a,13b-octadecahydro-1H-cyclopenta[a]chrysen-3a-yl)methylamino)propanoyl)pyrrolidine-2-carboxylic acid] was tested. Which EC50 did it give?
**A.** < 100 nM

**Q.** How did the EC50 turn out when `C=C(C)[C@@H]1CC[C@]2(CNC(=O)NCCN3CCCC3=O)CC[C@]3(C)[C@H](CC[C@@H]4[C@@]5(C)CC=C(c6ccc(C(=O)O)cc6)C(C)(C)[C@@H]5CC[C@]43C)[C@@H]12` [Example 154, 4-((1R,3aS,5aR,5bR,7aR,11aS,11bR,13aR,13bR)-5a,5b,8,8,11a-pentamethyl-3a-((3-(2-(2-oxopyrrolidin-1-yl)ethyl)ureido)methyl)-1-(prop-1-en-2-yl)-2,3,3a,4,5,5a,5b,6,7,7a,8,11,11a,11b,12,13,13a,13b-octadecahydro-1H-cyclopenta[a]chrysen-9-yl)benzoic acid] was run?
**A.** < 100 nM

**Q.** `C=C(C)[C@@H]1CC[C@]2(CNCCN3CCCCC3=O)CC[C@]3(C)[C@H](CC[C@@H]4[C@@]5(C)CC=C(c6ccc(C(=O)O)cc6)C(C)(C)[C@@H]5CC[C@]43C)[C@@H]12` [Example 78, 4-((1R,3aS,5aR,5bR,7aR,11aS,11bR,13aR,13bR)-5a,5b,8,8,11a-pentamethyl-3a-((2-(2-oxopiperidin-1-yl)ethylamino)methyl)-1-(prop-1-en-2-yl)-2,3,3a,4,5,5a,5b,6,7,7a,8,11,11a,11b,12,13,13a,13b-octadecahydro-1H-cyclopenta[a]chrysen-9-yl)benzoic acid] was tested. Which EC50 did it give?
**A.** < 100 nM

**Q.** How did the EC50 turn out when `C=C(C)[C@@H]1CC[C@]2(CNCC(=O)O)CC[C@]3(C)[C@H](CC[C@@H]4[C@@]5(C)CC=C(c6ccc(C(=O)O)cc6)C(C)(C)[C@@H]5CC[C@]43C)[C@@H]12` [Example 31, 4-((1R,3aS,5aR,5bR,7aR,11aS,11bR,13aR,13bR)-3a-((carboxymethylamino)methyl)-5a,5b,8,8,11a-pentamethyl-1-(prop-1-en-2-yl)-2,3,3a,4,5,5a,5b,6,7,7a,8,11,11a,11b,12,13,13a,13b-octadecahydro-1H-cyclopenta[a]chrysen-9-yl)benzoic acid] was run?
**A.** < 100 nM

**Q.** Which EC50 does the source give for `C=C(C)[C@@H]1CC[C@]2(CN[C@@H](CC(=O)O)C(=O)N3CCS(=O)(=O)CC3)CC[C@]3(C)[C@H](CC[C@@H]4[C@@]5(C)CC=C(c6ccc(C(=O)O)cc6)C(C)(C)[C@@H]5CC[C@]43C)[C@@H]12` [Example 132, 4-thiomorpholinebutanoic acid, 4-((1R,3aS,5aR,5bR,7aR,11aS,11bR,13aR,13bR)-3a-((((1S)-1-(carboxymethyl)-2-(1,1-dioxido-4-thiomorpholinyl)-2-oxoethyl)amino)methyl)-1-isopropenyl-5a,5b,8,8,11a-pentamethyl-2,3,3a,4,5,5a,5b,6,7,7a,8,11,11a,11b,12,13,13a,13b-octadecahydro-1H-cyclopenta[a]chrysen-9-yl)benzoic acid] here?
**A.** < 100 nM

**Q.** With `C=C(C)[C@@H]1CC[C@]2(CNCCS(N)(=O)=O)CC[C@]3(C)[C@H](CC[C@@H]4[C@@]5(C)CC=C(c6ccc(C(=O)O)cc6)C(C)(C)[C@@H]5CC[C@]43C)[C@@H]12` [Example 45] as the compound, how does the EC50 read?
**A.** < 100 nM
